From article PMC6411751, “Use of machine learning to identify novel, behaviorally active antagonists of the insect odorant receptor co-receptor (Orco) subunit” (Scientific Reports, 2019)
Structures can show the parent of a compound that is named as a salt.

Legend:
[1] = tested on: sham (water) injected oocytes; assay: Application of Orco antagonists to sham (water) injected oocytes; type: cell-based, Xenopus laevis; conditions: 3 mM
Protocol: To measure antagonist activity at Orco, Agam\Orco was activated by the Orco agonist OLC12[34]. Following two successive 60 sec applications of 30 μM OLC12, with 5 min washes between applications, each antagonist candidate was applied for 90 sec, immediately followed by a 60 sec co-application of antagonist candidate and OLC12. The 90 sec application of each compound alone (prior to co-application of the compound and OLC12) allowed us to ensure that antagonist candidate compounds were not causing non-specific effects on the oocytes that might confound the results. The current response to OLC12 in the presence of antagonist candidate was compared to the mean of the preceding two responses to OLC12 alone and presented as a percentage[34],[35]. This value was then normalized to the value obtained when the assay was run in the absence of antagonist candidate (sham).
Figure S2. Applic a tion of Orco antagonists to s ha m (wa ter) injected oocytes.
Up p e r tra ce, current recording from a sham (water) injected oocyte that was challenged with 60 sec applications of 100 µM an d 1 mM 3-isopropyl-6-methyl-ca t e ch o l (3 I6MC). Representative of recordings from 4 oocytes. Lo we r trace, current recording from a sham (water) injected oocyte that was challenged with 60 sec applications of 3 mM 2-tert-butyl-6-methylphenol (BMP) and linalyl formate (LF). Representative of recordings […]

fruit fly antennae = assay: Electroantennogram (EAG) recordings in adult flies; type: in vivo, Drosophila melanogaster; conditions: for amplitude of EAG responses to EA and 2 H: adult flies
From the text: Adult flies (w1118 strain, 3–5 days old) were mounted in truncated pipette tips for detection of antennal responses[69],[70]. EAG data were obtained with an IDAC-232 (Syntech), which was linked to a computer via the EAGpro data acquisition interface. SSR data were acquired with an IDAC 4 and AutoSpike (Syntech). Recording and indifferent electrodes were made of silver/silver chloride wires enclosed in glass capillary needles, which were pulled with a Micropipette Puller (P-97, Sutter Instruments Co.) and filled with 1 M potassium chloride in 1% polyvinylpyrrolidone. The indifferent electrode was inserted in the eye of an immobilized fly, while the EAG recording electrode was placed on the third segment of the antenna under a S2X12 Olympus microscope and by using a micromanipulator MP-12 (Syntech). For SSR, the recording electrode was inserted into a desired sensillum under a stage microscope (BX51WI, Olympus) and using a Piezo Manipulator (PM10, World Precision Instrument). The stimulus delivery system consisted of a Stimulus Controller CS-55 (Syntech), which delivered charcoal-filtered, humidified air at 650 mL/min through a stimulus tube (5 cm long; internal diameter, 8 mm). The outlet of the stimulus delivery tube was set 1 cm away from the preparations. Stimulus pulses (0.5 sec) were introduced through a hole in the stimulus delivery tube 2.5 cm away from outlet. A compensatory flow was applied through another hole in the tube (directly across from the stimulus pulse hole). The total flow (continuous plus compensatory or continuous plus stimulus) of 0.6 mL/s was measured at the center of the outlet of the stimulus delivery tube with an Anemometer Lite (Model 6006, Kanomax, Osaka, Japan). 10 µL of the odorants EA and 2 H (freshly diluted to 0.01%, 0.1% or 1% in mineral oil) or the Orco antagonist compounds BMP and LF (freshly diluted to 1% or 50% in mineral oil) were loaded onto filter papers (1 cm^2). The filter papers containing odorants were placed inside of stimulus cartridges. Loading of odorant containing filter papers into the cartridges occurred in ambient air, which could contain trace amounts of odorants. Thus, stimulus pulses with ambient air (filter papers containing mineral oil alone) in the cartridges were used to define a baseline response. For EAG, filter papers containing BMP or LF (50% in mineral oil) were placed inside the main airflow tube 8 cm away from the antenna and odorants were delivered through a hole 2.5 cm away from the outlet. For SSR, BMP (1% in mineral oil) was delivered into the holes 2.5 cm away from the outlet, whereas the odorants were delivered upstream through a hole 4 cm away from the outlet. The different delivery arrangements may contribute to the difference in apparent BMP potency in the EAG and SSR experiments (Figs 6 and 7). Each filter paper was used 3–5 times before being replaced. CO2 was freshly collected into stimulus cartridge from the breath of the same subject (P.X.) and used only once. Spikes were manually counted 0.5 s before and 0.5 s after stimulus and the results presented as poststimulus number of spikes per 0.5 s (number of spikes after stimulus minus number of spikes prior to stimulus). Data were analyzed with One Way ANOVA using Prism 7 (GraphPad).

[2] = tested on: ab2 sensilla (EA responsive OSN); assay: Single sensillum recording (SSR), ab2 sensilla, ethyl acetate response; type: in vivo, Drosophila melanogaster
From the text: (§1) Adult flies (w1118 strain, 3–5 days old) were mounted in truncated pipette tips for detection of antennal responses[69],[70]. EAG data were obtained with an IDAC-232 (Syntech), which was linked to a computer via the EAGpro data acquisition interface. SSR data were acquired with an IDAC 4 and AutoSpike (Syntech). Recording and indifferent electrodes were made of silver/silver chloride wires enclosed in glass capillary needles, which were pulled with a Micropipette Puller (P-97, Sutter Instruments Co.) and filled with 1 M potassium chloride in 1% polyvinylpyrrolidone. The indifferent electrode was inserted in the eye of an immobilized fly, while the EAG recording electrode was placed on the third segment of the antenna under a S2X12 Olympus microscope and by using a micromanipulator MP-12 (Syntech). […] The total flow (continuous plus compensatory or continuous plus stimulus) of 0.6 mL/s was measured at the center of the outlet of the stimulus delivery tube with an Anemometer Lite (Model 6006, Kanomax, Osaka, Japan). […] Spikes were manually counted 0.5 s before and 0.5 s after stimulus and the results presented as poststimulus number of spikes per 0.5 s (number of spikes after stimulus minus number of spikes prior to stimulus). Data were analyzed with One Way ANOVA using Prism 7 (GraphPad).

[3] = tested on: ab1 sensilla (CO2 responsive OSN, Gr21 and Gr63a); assay: Single sensillum recording (SSR), ab1 sensilla, CO2 response; type: in vivo, Drosophila melanogaster; conditions: 10 µL of 1% compound in mineral oil
From the text: as §1

D. melanogaster larvae = assay: Larval chemotaxis assay (attraction to ethyl acetate); type: in vivo, Drosophila melanogaster; conditions: for larval preference, compound alone vs. mineral oil vehicle: 10 µL of 100 mM on plate filter
Protocol: We have previously provided a detailed description of these methods. Briefly, Canton-S (CS) flies were used as wild type (wt). The experimental chamber was a 100 × 15 mm polystyrene Petri dish (VWR) with 20 mL of 1.1% agarose coating the bottom. In this assay, 50 third-instar larvae were placed inside a “starting circle” at the center of the plate (the circle was drawn on the outside bottom of the plate). A line was also drawn that divided the plate in half. Small filter paper discs (d = 6 mm, Whatman Cellulose Filter Paper, # 1030 023) were placed on opposite sides of the plate (see Fig. 8A). Onto each filter paper disc was placed 10 μL of solution, containing either vehicle of dilution (mineral oil), odorant attractant (EA, diluted in mineral oil) or an Orco antagonist compound (diluted in mineral oil). The sides of the plate on which the compounds or vehicle were placed were alternated from experiment to experiment.
In order to test Orco antagonists for the ability to affect the chemotaxis assay, a large (d = 9 cm) filter paper (Whatman Filter Paper # D00161-S) was adhered with double-sided tape to the inside of the Petri dish lid. This allowed the larvae to be exposed to Orco antagonists in an airborne context. For light repulsion experiments, we used a Zeiss CL6000 LED light source at 76% intensity. Following the 5 min migratory period, plates were photographed, coded and then blind counted. Any larvae still within the starting circle or touching the center line were excluded from the analysis. A Response Index (RI) was calculated as RI = (S − C)/(S + C), where S is the number of larvae on the stimulus (EA) side and C is the number of larvae on the control (mineral oil) side. RI = 1 would indicate complete attraction, RI = −1 would indicate complete repulsion, and RI = 0 would indicate no preference. Statistical significance was assessed using a one-way analysis of the variance followed by Dunnett’s’s post-test.

[4] = 10 µL of 50% compound in mineral oil in main airflow

Row | SMILES | non-specific effects on sham (water) injected oocytes [1] | baseline EAG response to ambient air (fruit fly antennae; [4]) | amplitude of EAG responses to EA and 2 H (fruit fly antennae; [4]) | extent of inhibition of EAG responses across 0.01%, 0.1%, 1% 2H (fruit fly antennae; 50% BMP in main airflow, n = 3) | extent of inhibition of EAG responses across 0.01%, 0.1%, 1% EA (fruit fly antennae; 50% BMP in main airflow, n = 3) | odorant agonist activity in EAG (fruit fly antennae; compound alone) | SSR response of ab2 sensilla to EA ([2]; 10 µL of 1% compound in mineral oil, 0.1% EA) | reversibility of effect on ab2 EA response ([2]; subsequent response to EA alone) | SSR response of ab1 sensilla to CO2 [3] | larval attraction to EA with airborne compound (D. melanogaster larvae; 30 mM on lid filter) | larval preference, compound alone vs. mineral oil vehicle (D. melanogaster larvae) | larval attraction to EA with airborne compound (D. melanogaster larvae; 685 µL of 100 mM on lid filter)
1 | Cc1cccc(C(C)(C)C)c1O [BMP, 2-tert-butyl-6-methylphenol] | Neither BMP or LF exerted any non-specific effects | significantly reduced the baseline response | significantly reduced the amplitude | did not differ | did not differ | did not act as an odorant agonist | abolished the response | reversible | had no effect on the CO2 response | did not significantly affect attraction to EA | displayed no preference | completely abolished larval attraction to EA
2 | C=CC(C)(CCC=C(C)C)OC=O (centres unmarked) [LF, linalyl formate] | Neither BMP or LF exerted any non-specific effects |  | did not alter the amplitude |  |  |  |  |  |  | significantly reduce larval attraction to EA | displayed no preference | completely abolished larval attraction to EA
